In US6369109B1, “Betulinic acid and derivatives thereof useful for the treatment of neuroectodermal tumor” (Deutsches Krebsforschungszentrum Stiftung des Offentlichen …, priority 1998, dated 2002):
Entries after “also recorded” stand apart in the source; their conditions may differ. Residues, ends and D or L forms follow the SMILES beside them. *: point of attachment. Cbz = O=C(OCc1ccccc1)*; CH2F = FC*

Experiments:
[1] = tested on: mitochondria isolated from SHEP cells; test: Mitochondrial membrane potential of isolated mitochondria (DiOC6(3)); format: biochemical, human; details: FIG. 7, 12D; for effect of inhibitor on betulinic acid-induced Δψm loss in isolated mitochondria: 50 μM bongkrekic acid or 60 μM zVAD-fmk
Description: For isolation of mitochondria, cells (3×10^5 per sample) were washed twice with ice-cold PBS and resuspended with five volumes of buffer A (50 mM Tris, 1 mM EGTA, 5 mM 2-mercaproethanol, 0.2% BSA, 10 mM KH2PO4, pH 7.6, 0.4 M sucrose) and allowed to swell on ice for 20 min. Cells were homogenized with 30 strokes of a Teflon homogenizer and centrifuged at 10000 g for 10 min at 4° C. The resulting pellets were resuspended in buffer B (10 mM KH2PO4, pH 7.2, […] mannitol, 0.1% BSA). Mitochondria were separated by sucrose gradient (lower layer: 1.6 M sucrose, 10 mM KH2PO4, pH 7.5, 0.1% BSA; upper layer: 1.2 M sucrose, 10 mM KH2PO4, pH 7.5, 0.1% BSA). Interphases containing mitochondria were washed with buffer B at 18000 g for 10 min at 4° C. and the resulting mitochondrial pellets were resuspended in buffer B. For preparation of cytosolic extracts, cells (1×10^8 per sample) were washed twice with ice-cold PBS, resuspended with one volume of buffer A and allowed to swell on ice for 20 min. Cells were homogenized with 30 strokes of a Dounce homogenizer and centrifuged at 15000×g for 15 min ax 4° C. The protein concentration of mitochondria or cytosolic extracts was determined by Bradford method (Bio-Rad). For isolation of nuclei, cells were washed twice in ice-cold PBS, resuspended in 10 volumes of buffer C (10 mM PIPES, pH 7.4, 10 mM KCl, 2 mM MgCl2, 1 mM DDT, 1 mM PMSF, 10 μM cytochalasin B), allowed to swell on ice for 20 min and homogenized using a Teflon homogenizer. Homogenates were layered over 30% sucrose in buffer C and centrifuged at 800 g for 10 min. The resulting nuclear pellets were resuspended in buffer C and washed three times. Nuclei were scored at −80° C. in aliquots of 10^8 nuclei/ml until required. AIF-containing mitochondrial supernatant was prepared as described in Susin et aL, 1997, J. Exp. Med. 186, 5-37 and Susin et al., 1996, J. Exp. Med. 184, 1331-41.
Mitochondria (5×10^5/ml) were treated with 10 μg/ml betulinic acid for 30 min, incubated with 3,3′-dihexyloxacarbocyanide iodide (DiOC6(3), 40 nM, Molecular Probes, Inc., Eugene, Oreg.) for 15 min at 37° C. and analyzed on a flow cytometer (FACS Vantage, Becton Dickinson). As a control, cells were treated with the uncoupling agent carbonyl cyanide m-chlorophenylhydrazone (mCICCP, 200 μM, Sigma).

[2] = tested on: FLICE, CPP32 and PARP in SH-EP neuroblastoma cells; test: Western blot of FLICE (caspase-8), CPP32 (caspase-3) and PARP cleavage; format: cell-based, human
Description: Cells were lysed for 30 min at 4° C. in PBS with 0.5% Triton X (Serva, Heidelberg, Germany) and 1 mM phenylmethylsulfonyl fluoride (Sigma, Deisenhofen, Germany) followed by high-speed centrifugation. Membrane proteins were eluted in buffer containing 0.1 M glycine. PH 3.0 and 1.5 M Tris, pH 8.8. Protein concentration was assayed using bicinchoninic acid (Pierce Chemical Co., Rockford, Ill.). Forty μg of protein per lane were separated by 12% SDS-PAGE and electroblotted onto nitrocellulose (Amersham, Braunschweig, Germany). Equal protein loading was controlled by Ponceau red staining of membranes. After blocking for 1 h in PBS supplemented with 2% BSA (Sigma) and 0.1% Tween 20 (Sigma), immunodetection of FLICE, CPP32, PARP, Bax, Bcl-x, Bcl-2, and p53 protein was done using mouse anti-FLICE monoclonal antibody C15 (1:5 dilution of hybridoma supernatant), mouse anti-CPP32 monoclonal antibody (1:1000, Transduction Laboratories, Lexington, KY), rabbit anti-PARP polyclonal antibody (1:10000, Enzyme Systems Products), rabbit anti-Bax polyclonal antibody (1:500, Calbiochem, Bad Soden, Germany), rabbit anti-Bcl-x polyclonal antibody (1:1000, Santa Cruz Biotechnology, Santa Cruz, Calif.), mouse anti-p53 monoclonal antibody (1:10000, Transduction Laboratories), and goat anti-mouse 1gG or goat antirabbit IgG (1:5000, Santa Cruz Biotechnology), ECL (Amersham) was used for detection.
FIG. 2B and FIG. 2C show the cleavage of FLICE, CPP32 and PARP. SH-EP neuroblastoma cells were treated with 10 μg/ml betulinic acid for indicated times or with 0.5 μg/ml doxorubicin for 24 h. Forty μg of protein per lane, isolated from cell lysates, were separated by 12% SDS-PAGE, Immunodetection of FLICE (FIG. 2B). CPP32 (FIG. 2C), and PARP (C) proteins was performed by mouse anti-FLICE monoclonal antibody, mouse anti-CPP32 monoclonal antibody, or rabbit anti-PARP polyclonal antibody and ECL.
SH-EP neuroblastoma cells were treated with 10 μg/ml betulinic acid for 24 h with or without 60 μM zVAD-frnk. Western blot analysis for FLICE and PARP cleavage was performed as described for FIG. 2B.
Cells were lysed for 30 mm at 4° C. in PBS with 0.5% Triton X (Serva, Heidelberg, Germany) and 1 mM PMSF (Sigma, Deisenhofen, Germany) followed by high-speed centrifugation. Membrane proteins were eluted in buffer containing 0.1 M glycine, pH 3.0 and 1.5 M Tris, pH 8.8. Protein concentration was assayed using bicinchoninic acid (Pierce, Rockford, Ill.). 40 μg protein per lane was separated by 12% or 15% SDS-PAGE and electroblotted onto nitrocellulose (Amersham, Braunschweig, Germany). Equal protein loading was controlled by Ponceau red staining of membranes. […]
For determination of mitochondrial membrane potential, cells (5×10^5/ml) were incubated with 3,3′-dihexyloxacarbocyanide iodide (DiOC6(3), 40 nM, Molecular Probes, Inc., Eugene, Oreg.) for 15 min at 37° C. and analyzed on a flow cytometer (FACScan) (Zamzarni et al., 1996 J. Exp. Med. 183:1533-44). […]

[3] = 0.5 μg/ml Doxo or 10 μg/ml Bet A, 24 h, FIG. 14A

SMILES | effect of inhibitor on betulinic acid-induced Δψm loss in isolated mitochondria [1] | effect of inhibitor on betulinic acid-induced cleavage of FLICE and PARP ([2]; 60 μM zVAD-fmk, 10 μg/ml betulinic acid 24 h, FIG. 2E) | Δψm of isolated mitochondria ([1]; mitochondria from wild type or vector-only SHEP cells, 10 μg/ml betulinic acid, 30 min) | caspase-3 (and PARP) processing in Bcl-2 or Bcl-XL overexpressing cells [2, 3] | caspase-8 processing in Bcl-2 or Bcl-XL overexpressing cells [2, 3] | caspase cleavage in cells sorted into ΔΨm^high and ΔΨm^low ([2]; 0.5 μg/ml Doxorubicin or 10 μg/ml Bet A, 18 h, FIG. 14B-2) | cleavage of FLICE ([2]; 10 μg/ml betulinic acid, 0.5 μg/ml doxorubicin 24 h, FIG. 2B)
COC(=O)C[C@H](NC(=O)[C@H](C)NC(=O)[C@@H](NC(=O)OCc1ccccc1)C(C)C)C(=O)CF [zVAD-fmk, benzyloxycarbonyl-Val-Ala-Asp-Fluoromethylketone] (Cbz-Val-Ala-Asp(OMe)-CH2F) | did not interfere; also recorded: not blocked | inhibited cleavage of FLICE and PARP |  |  |  |  | 
CO[C@H](C/C=C\C=C\CC/C=C/C[C@H](C)/C=C/C(=C\C(=O)O)CC(=O)O)/C(C)=C\C=C(/C)C(=O)O [bongkrekic acid] | inhibited |  |  |  |  |  | 
COc1cccc2c1C(=O)c1c(O)c3c(c(O)c1C2=O)C[C@@](O)(C(=O)CO)C[C@@H]3O[C@H]1C[C@H](N)[C@H](O)[C@H](C)O1 [doxorubicin] |  |  | did not induce mitochondrial perturbations | inhibited in Bcl-2 and Bcl-XL transfected cells | cleaved into p43 and p41 intermediates and the active p18 subunit, regardless of Bcl-2 or Bcl-XL overexpression | CD95-L induction and cleavage of caspase-8 was found in both ΔΨm^high and ΔΨm^low cells | stimulated FLICE cleavage
